Here are results for 1 molecule from US9856427B2, “Method to convert fermentation mixture into fuels” (The Regents of the University of California, priority 2011, dated 2018).

For the data set, the system named is Clostridium acetobutylicum. Nature of the data set: Toxicity study: growth inhibition and cell viability. It is filed as cell-based. Conditions: up to 1:1 volume ratios of extractant to media. The text has this: Growth inhibition and cell viability was examined in a study using up to 1:1 volume ratios of extractant to media.

Turning to `CCCC(=O)OCC(COC(=O)CCC)OC(=O)CCC` [glyceryl tributyrate], the “toxicity to Clostridium acetobutylicum (growth inhibition and cell viability)” value was “non-toxic”.
